Data taken from patent publication US4965264A, “Thienocinnoline compounds and their pharmaceutical use” (Yoshitomi Pharmaceutical Industries, Ltd., priority 1987, dated 1990).

Tests used:
[1] = molecular target: benzodiazepine receptors; assay: Displacement of tritiated diazepam, benzodiazepine receptor binding (synaptosome fraction of cerebral cortex); set-up: species or system rat (male Wistar); conditions: displacement of 2 nM tritiated diazepam, rat cortex synaptosomes, pH 7.4, 0°C, 20 min; read-out: Affinity to BZP Receptors, Ki
Protocol: The experiment for specific affinity to benzodiazepine receptors was carried out in accordance with the method described in Life Science, vol. 20, 2101 (1977).
The crude cyhaptosome fraction was isolated from the cerebral cortex of male Wistar rats aged 9-10 weeks, and was suspended in 50 mM Tris-hydrochloric acid buffer solution (pH 7.4) containing 120 mM sodium chloride and 5 mM potassium chloride. These suspensions were used for the experiment.
The test compounds in several different concentrations and tritiated diazepam (in final concentration of 2 nM) were added to the synaptosome suspensions, and the mixtures were incubated at 0° C. for 20 minutes. These suspensions were filtered with Whatman GF/B glassfiber filters. After the filters were washed with the above-mentioned buffer solution, the radioactivity left on the filters was measured with the use of a liquid scintillation counter.
Specific binding was determined by subtracting binding in the presence of 10^-6 M unlabeled diazepam from total binding.
According to the foregoing experimental method, the binding force to benzodiazepine receptors of the compound of the present invention is evaluated from its displacement ability for tritiated diazepam at its binding site, which is represented by Ki value (nM).

[2] = system: leukocytes; assay: Action on leukocyte-phagocytosis; assay type: cell-based, mouse (ICR); conditions: Mus musculus, 20 min, 37° C., read-out: potentiating action on leukocyte phagocytosis, ratio of phagocytic leukocytes relative to controls
Protocol: The experiment was performed in accordance with the method by Stossel et al. [Journal of Clinical Investigation, vol. 51, 615 (1972)].
(§1) ICR mice weighing 30-35 g were intraperitoneally administered with glycogen. Three hours later, the leukocytes in the abdominal cavity were collected. A leukocyte suspension of 5×10^6 cells/ml was prepared and the test compound was added to 200 μl of the cell suspension, followed by further addition of 100 μl of mouse serum and 100 μl of dead yeast (1×10^8 particles/ml) thereto. The mixture was incubated at 37° C. for 20 minutes. By observing more than 200 leukocytes in the reaction mixture under a microscope (400 magnifications), the number of the leukocytes which had phagocytosed at least one dead yeast was counted. The ratio of the number of phagocytic leukocytes treated with 0.1 μM of the test compounds relative to that of phagocytic leukocytes of controls was estimated. The potentiating actions on phagocytosis of the compounds of Examples 1 and 9 were 160% and 158% respectively.

[3] = system: amnesia induced by electroconvulsive shock; assay: Action on experimental amnesia (electroconvulsive shock, step-through passive avoidance); assay type: in vivo, mouse (male ddY); conditions: Mus musculus, ip; i.p. immediately after ECS; latency 3 h after acquisition trial; read-out: Anti-amnesia Action, MED
Protocol: The experiment was carried out in accordance with the method described by Sara in Psychopharmacologia, vol. 36, 59 (1974). Male ddY mice weighing 23-26 g, 20 animals per group, were used, and a step-through passive avoidance reflex practicing box consisting of illuminated chamber and dark chamber was used as the experimental apparatus. As the acquisition trial of passive avoidance reflex, the animals were placed in the illuminated chamber and then allowed to enter the dark one. As soon as the animals entered the dark chamber, footshock was applied to the mouse. Experimental amnesia was caused by applying electroconvulsive shock [ECS]soon after the acquisition trial. As the experimental trial, the animals were placed in the illuminated chamber three hours after the acquisition trial, and the time which the animals took to enter the dark chamber (latency) was measured until 600 seconds. The test compounds were administered intraperitoneally (i.p.) immediately after the application of ECS. For the evaluation of the effects, antagonistic actions against the reduction in latency, caused by the application of ESC were examined.

[4] = system: E. coli 0-111 strain; assay: Infection-protective action (E. coli infection in cyclophosphamide-treated mice); assay type: in vivo, mouse (male ICR); conditions: 3 mg/kg orally for 3 days; 7 days after E. coli inoculation; cyclophosphamide 200 mg/kg i.p.
Protocol: Cyclophosphamide was intraperitoneally administered to male ICR mice (weighing 23-27 g, aged 5 weeks) at the dosage of 200 mg/kg. Four days later, […] of E. coli 0-111 strain was subcutaneously inoculated into the mice (Controls). The test compounds (3 mg/kg) were orally administered to the mice for 3 days from the following day of the administration of cyclophosphamide. The survival rate of the treated mice relative to controls 7 days after the inoculation of E. coli was compared.

[5] = system: peritoneal macrophages; assay: Action on macrophage-phagocytosis; assay type: cell-based; conditions: Rattus norvegicus, read-out: potentiating action on macrophage phagocytosis, relative ratio of phagocytic macrophages
Protocol: as §1
Casein sodium was intraperitoneally administered to rats. Three to four days later, peritoneal macrophages were collected. The phagocytosis was examined, and the relative ratio of phagocytic macrophages of the rat treated with 0.1 μM of the test compound was calculated in the same manner as Experimental Example 4. The potentiating actions on phagocytosis of the compounds of Examples 2, 8 and 10 were 146%, 167% and 148% respectively.

## Cc1ccc(N2N=C3c4cc(C)sc4CCC3CC2=O)cc1 (stereo not drawn) [Example 24, 2-Methyl-8-(4-methylphenyl)-4,5,5a,6,7,8-hexahydrothieno[2,3-h]cinnolin-7-one]
[1]
  Ki: 0.01 µM

## COc1ccc(N2N=C3c4ccsc4CCC3CC2=O)cc1 (stereo not drawn) [Example 9, 8-(4-methoxyphenyl)4,5,5a,6,7,8-hexahydrothieno[2,3-h]cinnolin-7-one]
[2]
  activity at 0.1 µM: 158%
[3]
  minimal effective dose: 0.5 mg/kg
[1]
  Ki: 0.012 µM

## COc1ccc(N2N=C3c4cc(Br)sc4CCC3CC2=O)cc1 (stereo not drawn) [Example 11, 2-bromo-8-(4-methoxyphenyl)-4,5,5a,6,7,8-hehahydrothieno[2,3-h]cinnolin-7-one]
[4]
  effect on survival rate relative to controls: significant increasing effects on survival rate
[1]
  Ki: 0.0045 µM

## O=C1CC2CCc3sc(Br)cc3C2=NN1c1ccc(Cl)cc1 (stereo not drawn) [Example 6, 2-bromo-8-(4-chlorophenyl)-4,5,5a,6,7,8-hexahydrothieno[2,3-h]cinnolin-7-one]
[1]
  Ki: 0.012 µM

## O=C1CC2CCc3sccc3C2=NN1c1ccc(Cl)cc1 (stereo not drawn) [Example 2, 8-(4-chlorophenyl)4,5,5a,6,7,8-hexahydrothieno[2,3-h]cinnolin-7-one]
[5]
  activity at 0.1 µM: 146%
[4]
  effect on survival rate relative to controls: significant increasing effects on survival rate

## Cc1ccc(N2N=C3c4cc(Br)sc4CCC3CC2=O)cc1 (stereo not drawn) [Example 10, 2-bromo-8-(4-methylphenyl)-4,5,5a,6,7,8-hexahydrothieno[2,3-h]cinnolin-7-one]
[5]
  activity at 0.1 µM: 148%
[1]
  Ki: 0.007 µM

## COc1ccc(N2N=C3c4cc(C)sc4CCC3CC2=O)cc1 (stereo not drawn) [Example 14, 2-Methyl-8-(4-methoxyphenyl)-4,5,5a,6,7,8-hexahydrothieno[2,3-h]cinnolin-7-one]
[3]
  minimal effective dose: 0.25 mg/kg
[1]
  Ki: 0.0051 µM

## O=C1CC2CCc3sccc3C2=NN1c1ccccn1 (stereo not drawn) [Example 3, 8-(2-pyridyl)4,5,5a,6,7,8-hexahydrothieno[2,3-h]cinnolin-7-one]
[3]
  minimal effective dose: 0.1 mg/kg
[1]
  Ki: 0.28 µM

## O=C1CC2CCc3sccc3C2=NN1c1ccccc1 (stereo not drawn) [Example 1, 8-phenyl-4,5,5a,6,7,8-hexahydrothieno[2,3h]cinnolin-7-one]
[2]
  activity at 0.1 µM: 160%

## O=C1CC2CCc3sc(Br)cc3C2=NN1c1ccccc1 (stereo not drawn) [Example 4, 2-bromo-8-phenyl-4,5,5a,6,7,8-hexahydrothieno[2,3-h]-cinnolin-7-one]
[3]
  minimal effective dose: 0.5 mg/kg
[1]
  Ki: 0.03 µM

## Cc1ccc(N2N=C3c4ccsc4CCC3CC2=O)cc1 (stereo not drawn) [Example 8, 8-(4-methylphenyl)-4,5,5a,6,7,8-hexahydrothieno[2,3-h]cinnolin-7-one]
[5]
  activity at 0.1 µM: 167%
[4]
  effect on survival rate relative to controls: significant increasing effects on survival rate

## Cc1cc2c(s1)CCC1CC(=O)N(c3ccccc3)N=C21 (stereo not drawn) [Example 5, 2-methyl-8-phenyl-4,5,5a,6,7,8-hexahydrothieno[2,3-h]cinnolin-7-one]
[3]
  minimal effective dose: 0.25 mg/kg
[1]
  Ki: 0.018 µM

## O=C1CC2CCc3sc(Br)cc3C2=NN1c1ccccn1 (stereo not drawn) [Example 7, 2-bromo-8-(2-pyridyl)-4,5,5a,6,7,8-hexahydrothieno[2,3-h]cinnolin-7-one]
[3]
  minimal effective dose: < 0.5 mg/kg
[1]
  Ki: 0.06 µM
